Experimental data: patent US20220120736A1, “METHODS AND ASSAYS FOR MODULATING GENE TRANSCRIPTION BY MODULATING CONDENSATES” (Whitehead Institute for Biomedical Research, priority 2018, published 2022)

Experiments:
OCT4 (FKBP-tagged) = biological target: T1, OCT4 (FKBP-tagged) (Mus musculus, UniProt P20263+Q8C7D2); assay: RNA-seq after OCT4 degradation in OCT4-FKBP ESCs; format: cell-based; conditions: dTag 24 hours versus DMSO
T1 construct: an ESC line bearing endogenous knock-in of DNA encoding the FKBP protein fused to OCT4; HA (C); endogenous in cells; host or cells: V6.5 mouse ES cells (Med1-mEGFP background), homozygous Oct4-FKBP knock-in
T1 sequence (P20263 with tags, fused parts or gaps): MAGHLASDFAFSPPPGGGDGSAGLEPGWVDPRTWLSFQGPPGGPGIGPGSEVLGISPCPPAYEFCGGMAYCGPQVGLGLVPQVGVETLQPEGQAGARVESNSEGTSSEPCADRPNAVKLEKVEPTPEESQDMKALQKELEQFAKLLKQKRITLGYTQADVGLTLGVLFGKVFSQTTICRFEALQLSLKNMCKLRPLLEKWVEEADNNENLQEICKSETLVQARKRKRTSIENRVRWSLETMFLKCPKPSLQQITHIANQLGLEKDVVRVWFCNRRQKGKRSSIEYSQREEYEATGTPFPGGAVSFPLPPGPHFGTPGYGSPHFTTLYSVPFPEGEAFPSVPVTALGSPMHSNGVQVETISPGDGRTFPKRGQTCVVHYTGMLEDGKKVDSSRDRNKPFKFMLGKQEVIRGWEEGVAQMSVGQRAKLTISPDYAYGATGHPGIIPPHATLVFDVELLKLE
T1 sequence (Q8C7D2 whole entry, the tested form may be a part): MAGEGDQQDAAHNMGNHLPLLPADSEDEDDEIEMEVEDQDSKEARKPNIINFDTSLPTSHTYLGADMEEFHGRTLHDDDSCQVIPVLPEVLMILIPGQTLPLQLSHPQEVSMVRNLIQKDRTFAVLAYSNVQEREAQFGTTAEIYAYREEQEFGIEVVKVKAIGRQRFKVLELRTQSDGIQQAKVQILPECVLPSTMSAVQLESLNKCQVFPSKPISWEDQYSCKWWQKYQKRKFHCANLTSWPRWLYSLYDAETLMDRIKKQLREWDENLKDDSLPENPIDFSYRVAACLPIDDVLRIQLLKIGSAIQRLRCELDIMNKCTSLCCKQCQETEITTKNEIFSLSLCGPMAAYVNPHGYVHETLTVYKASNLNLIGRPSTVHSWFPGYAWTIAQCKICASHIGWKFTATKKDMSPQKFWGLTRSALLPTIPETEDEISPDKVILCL
T1 sequence (Q3U1J4 whole entry partner, the tested form may be a part): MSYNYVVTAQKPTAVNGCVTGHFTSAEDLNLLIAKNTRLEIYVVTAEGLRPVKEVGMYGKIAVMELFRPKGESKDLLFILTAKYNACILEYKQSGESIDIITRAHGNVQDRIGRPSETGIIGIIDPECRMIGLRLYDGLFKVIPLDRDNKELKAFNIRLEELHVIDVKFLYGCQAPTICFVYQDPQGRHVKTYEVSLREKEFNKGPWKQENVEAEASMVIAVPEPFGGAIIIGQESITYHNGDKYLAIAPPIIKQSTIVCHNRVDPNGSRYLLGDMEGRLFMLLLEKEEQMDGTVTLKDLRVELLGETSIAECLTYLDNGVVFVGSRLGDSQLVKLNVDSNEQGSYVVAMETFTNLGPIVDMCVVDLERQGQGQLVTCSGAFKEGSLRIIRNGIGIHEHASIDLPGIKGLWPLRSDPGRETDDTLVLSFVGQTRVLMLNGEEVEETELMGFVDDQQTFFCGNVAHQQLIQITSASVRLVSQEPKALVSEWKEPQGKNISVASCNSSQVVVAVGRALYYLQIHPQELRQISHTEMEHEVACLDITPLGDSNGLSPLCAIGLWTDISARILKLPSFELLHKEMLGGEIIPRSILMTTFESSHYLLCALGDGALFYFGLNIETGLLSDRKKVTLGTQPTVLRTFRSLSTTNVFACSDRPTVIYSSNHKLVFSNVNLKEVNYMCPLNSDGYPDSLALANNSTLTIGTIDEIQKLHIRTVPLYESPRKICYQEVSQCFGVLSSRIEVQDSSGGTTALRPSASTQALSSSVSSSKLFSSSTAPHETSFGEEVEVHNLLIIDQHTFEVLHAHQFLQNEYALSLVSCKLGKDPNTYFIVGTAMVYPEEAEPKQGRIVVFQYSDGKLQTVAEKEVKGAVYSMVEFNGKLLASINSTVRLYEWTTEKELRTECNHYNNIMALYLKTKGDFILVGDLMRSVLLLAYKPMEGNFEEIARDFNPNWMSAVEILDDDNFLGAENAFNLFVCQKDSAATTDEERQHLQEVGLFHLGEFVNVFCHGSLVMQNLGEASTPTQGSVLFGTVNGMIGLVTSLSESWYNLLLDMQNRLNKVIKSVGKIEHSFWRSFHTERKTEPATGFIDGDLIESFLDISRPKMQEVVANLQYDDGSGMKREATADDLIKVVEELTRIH
Procedure: RNA-Seq was performed in the indicated cell line with the indicated treatment, and used to determine expressed genes. RNA was isolated by AllPrep Kit (Qiagen 80204) and stranded polyA selected libraries was prepared using the TruSeq Stranded mRNA Library Prep Kit (Illumina, RS-122-2101) according to manufacturer's protocol and single-end sequenced on a Hi-seq 2500 instrument.
The CRISPR/Cas9 system was used to genetically engineer ESC lines. Target-specific oligonucleotides were cloned into a plasmid carrying a codon-optimized version of Cas9 with GFP (gift from R. Jaenisch). The sequences of the DNA targeted (the protospacer adjacent motif is underlined) are listed in the same table. […]
For analysis, raw reads were aligned to the mm9 revision of the mouse reference genome using hisat2 with default parameters. Gene name-level read count quantification was performed with htseq-count with parameters -I gene_id -stranded=reverse -f bam -m intersection-strict and a GTF containing transcript positions from Refseq, downloaded 6/6/18. Normalized counts, normalized fold-changes, and differential expression p values were determined using DEseq2 using the standard workflow and both replicates of each condition.

[1] = system: ER LBD point mutant-MED1 condensate in U2OS-Lac cells; assay: LAC binding assay, ER LBD point mutants tethered to Lac array; format: cell-based; conditions: ER mutants (Y537S, D538G)
Procedure: Constructs were assembled by NEB HIFI cloning in pSV2 mammalian expression vector containing an SV40 promoter driving expression of a CFP-LacI fusion protein. The activation domains and mutant activation domains of ESR1 were fused by the c-terminus to this recombinant protein, joined by the linker sequence […] (SEQ ID NO: 14). For some experiments a variant plasmid with mCherry in place of CFP was used. […] Cells were then plated on fibronectin-coated glass coverslips and transfected using lipofectamine 3000 (Thermofisher L3000015). For high MED1 conditions, a construct with a mammalian expression vector containing a PGK promoter driving the expression of MED1 fused to GFP was co-transfected. […]
For analysis of Lac array data, custom Python scripts were written to process and analyze image data gathered in Lac and tagged-protein channels. […] Segmented regions (also determined by measure.label) were then filtered based on minimum area (150 pixels), maximum area (2000 pixels), circularity (c=4pi*area/perimeter^2; 0.8), and presence in a nucleus as defined by the mask described above. A norm enrichment ratio was calculated by determining the mean intensity of the tagged-protein in the segmented Lac spot and dividing it by the mean intensity of the tagged-protein present in the same whole nucleus.

| Compound | expression of SE-driven genes (OCT4 (FKBP-tagged)) | reduction in Nanog mRNA levels (OCT4 (FKBP-tagged)) [%] | MED1 condensate formation at tethered ER LBD, dependence on estrogen [1] |
| --- | --- | --- | --- |
| CC[C@H](C(=O)N1CCCC[C@H]1C(=O)O[C@H](CCc1ccc(OC)c(OC)c1)c1ccccc1OCC(=O)NCCCCCCCCNc1ccc2c(c1)C(=O)N(C1CCC(=O)NC1=O)C2=O)c1cc(OC)c(OC)c(OC)c1 (stereo partly drawn) [dTag] | concomitantly decreased | 60 |  |
| C[C@]12CC[C@@H]3c4ccc(O)cc4CC[C@H]3[C@@H]1CC[C@@H]2O [estrogen, B-Estradiol] |  |  | both in the presence and absence of estrogen |
